According to patent US9993453B2, “Dosage forms and therapeutic uses L-4-chlorokynurenine” (VISTAGEN THERAPEUTICS, INC., priority 2013, dated 2018):
Where two headings read alike, the source gives them in different places.

Legend:
[1] = tested on: excitotoxic and ischemic neuronal damage; settings: cited from earlier work
[2] = Phase 1b clinical study: plasma pharmacokinetics after single and multiple once-daily oral doses of AV-101; settings: human plasma
Protocol: (§1) A Phase 1b, single-site, randomized, double-blind, placebo-controlled, study was conducted involving multiple oral doses of AV-101 in healthy male and female subjects. Subjects were randomized into one of three cohorts (360, 1,080, and 1,440 mg) and received a daily oral dose for 14 consecutive days. […] The safety, pharmacokinetics (PK), tolerability of treatment, and antihyperalgesic effect of AV-101 on capsaicin-induced hyperalgesia were assessed.
(§2) Blood was collected in 6-mL lithium heparin Vacutainer tubes. Samples were centrifuged, and the plasma was separated from the cells and frozen within 30 minutes after centrifugation. Centrifuged samples were placed on ice until they were placed in the freezer. Plasma samples were stored frozen at approximately −20° C. until their shipment to a contractor for analysis.
(§3) Baseline samples (0 minutes) were collected before the drug was administered on Day 1 and on Day 14. Samples were then collected at 0.5, 1, 1.5, 2, 4, 6, 8, 12, and 24 hours after dosing on Day land Day 14.
(§4) Both assays used a plasma sample volume of 50.0 μL.

[3] = after administration; cited from earlier work
[4] = target: glycine B (GlyB) coagonist site on the NMDA-R (Homo sapiens, UniProt Q05586); settings: cited from earlier work
seizures = settings: rats, preclinical studies (Reference 11); cited from earlier work
activated astrocytes = settings: within activated astrocytes (Reference 5); cited from earlier work
[5] = Safety and tolerability in humans (clinical study); assay type: in vivo, human; settings: certain doses (360, 1,080, 1,440 mg daily oral)
Protocol: The compound is an antihyperalgesic.
“Without significant adverse effect” means that substantially all patients to whom L-4-chlorokynurenine is administered will have no more than a “mild” adverse event as defined by the U.S. Food and Drug Administration (FDA). The FDA defines a “mild adverse event” as an event that is easily tolerated by the subject, causing minimal discomfort and not interfering with everyday activities. In contrast, a “moderate adverse event” is an event that is sufficiently discomforting causing it to interfere with normal everyday activities.

[6] = tested on: capsaicin-induced hyperalgesia; assay: Antihyperalgesic effect on capsaicin-induced hyperalgesia (VAS pain assessments) in Phase 1b study; assay type: in vivo, human
Protocol: On Day 1 and Day 14 of the clinical study, two intradermal injections of 250 μg of capsaicin were injected sequentially into the volar aspect of alternate forearms to produce burning pain, secondary hyperalgesia, and a flare. The capsaicin USP (United States Pharmacopeia) was prepared according to the site's standard procedure and dissolved in 20% cyclodextrin at a concentration of 10 mg/mL.
The first capsaicin injection in one forearm was given 1 hour after oral administration of AV-101 or placebo, and the second capsaicin injection was given in the other forearm 2 hours after the administration of AV-101 or placebo. The neurosensory testing began immediately at each capsaicin injection. The serial pain assessments using a 100-mm visual analog scale (VAS) occurred at preinjection and 0, 5, 10, 15, 30, 45, and 60 minutes after each capsaicin injection. The examiner asked the subject to rate the intensity by using the VAS of the spontaneous pain and elicited pain from the application of a 5.18 von Frey hair, 40° C. probe, and gentle stroking with a 1-inch foam brush. The VAS consisted of a 100-mm line with “no pain” written at the 0-mm end and the “worst imaginable pain” written at the 100-mm end. The distance in millimeters provided the pain measurement.
At least eight determinations of the hyperalgesic area borders were made using the same assessments and starting at different angles. Additionally, subjects were asked to rate the pain intensity of a 1-minute 45° C. heat stimulus (brief thermal stimulation) applied to the anterior thigh at 4.5 hours (±5 minutes) after study drug administration, then every 30 minutes (±5 minutes) through 6 hours after study drug administration. A radiant temperature probe was applied to fix the skin temperature at 36° C. during the pain assessments. Subjects used the VAS for all pain assessments.
All study assessment time points were anchored to Time 0, the time of study drug administration. For the capsaicin injection at 1 hour after dosing, the assessment interval (i.e., time after dosing of the study drug) was 60 to 120 minutes, during which time assessments occurred at approximately 60, 65, 70, and 75 minutes and then every 15 minutes through the 120-minute time point (i.e., 0, 5, 10, 15, 30, 45, and 60 minutes after capsaicin injection). The second injection of capsaicin was administered approximately 2 hours after dosing of the clinical trial material (CTM), and the assessment interval (i.e., time after dosing of the CTM) was 120 to 180 minutes. The serial pain assessments followed the same schedule, as described after the first capsaicin injection.
The primary efficacy endpoint was the analgesic response to spontaneous pain at each dose level of AV-101 120 to 180 minutes after dosing on Day 14.

[7] = human, in vivo, po
Protocol: as §1, §2, §3, §4

[8] = tested on: peripheral tissue inflammation and nerve injury; assay: Animal models of peripheral tissue inflammation and nerve injury; assay type: in vivo
dopaminergic neurons = settings: brains of rats (Reference 7); cited from earlier work
[9] = Reported feelings of well-being (anti-depressive activity) in the clinical study; assay type: in vivo, human; settings: zero subjects in the placebo group
Text: In the clinical study described in this application, 5 out of 26 subjects (as contrasted with zero subjects in the placebo group) affirmatively reported feelings of well being. This is consistent with reports that the glutamatergic system contributes to the pathophysiology of depression and that stress can induce changes in NMDA receptors. See, for example, Calabrese et al. “Stress-Induced Changes of Hippocampal NMDA Receptors: Modulation by Duloxetine Treatment,” PLoS ONE 2012, 7(5): e37916. doi:10.1371/journal.pone.0037916.

[10] = Day 1, after 1,440-mg oral dose of L-4-chlorokynurenine

## O=C(O)c1cc(O)c2ccc(Cl)cc2n1 [7-chlorokynurenic acid]
[1]
  Prevention of excitotoxic and ischemic neuronal damage: prevent excitotoxic and ischemic neuronal damage
[2]; Day 1, after 360-mg oral dose of L-4-chlorokynurenine
  Mean 7-chlorokynurenic acid Cmax: 42.7 ng/mL
[2]; [10]
  Mean 7-chlorokynurenic acid AUCO-t: 985 ng·b/mL
  Mean 7-chlorokynurenic acid Cmax: 314 ng/mL
[2]; Day 1, after lowest dose (360 mg) of L-4-chlorokynurenine
  Mean 7-chlorokynurenic acid AUCO-t: 156 ng·h/mL
[2]; after oral L-4-chlorokynurenine 360 to 1,440 mg
  Dose linearity of mean 7-chlorokynurenic acid Cmax and AUCO-t: approximately dose linear
[2]; once-daily oral L-4-chlorokynurenine for 14 days
  Mean Cmax and AUCO-t of 7-chlorokynurenic acid on Day 14 compared with Day 1: slightly lower on Day 14 than those on Day 1
[3]
  Crossing of the blood-brain barrier / access to the CNS: does not cross the blood-brain barrier
[4]
  GlyB antagonist potency and specificity: One of the most potent and specific GlyB antagonists

## Nc1cc(Cl)ccc1C(=O)CC(N)C(=O)O [L-4-chlorokynurenine]
seizures
  Anti-seizure activity: anti-seizure activity
Activated astrocytes
  Conversion to 7-chlorokynurenic acid: efficiently converted
[5]
  Safety and tolerability in humans: safe and tolerable in humans without substantial side effects or any significant adverse effects
[6]; 1,080 mg (Cohort 2) versus placebo
  Least squares means of the AUPC for allodynia pain, mechanical hyperalgesia pain and heat hyperalgesia pain: consistent decrease
[6]; 1080 mg oral daily, n=13, 100-mm VAS, placebo 77.00
  MAXPAIN, Spontaneous Pain: 75.08
[6]; 1080 mg oral daily, n=13, 100-mm VAS, placebo 79.50
  MAXPAIN, Allodynia Pain (foam brush): 70.92
[6]; 1080 mg oral daily, n=13, 100-mm VAS, placebo 79.75
  MAXPAIN, Mechanical Allogesia: 66.23
[6]; 1080 mg oral daily, n=13, 100-mm VAS, placebo 84.75
  MAXPAIN, Heat Allogesia: 78.85
[6]; 120 to 180 minutes Day 1, 60 to 180 minutes Days 1 and 14, versus placebo
  Secondary efficacy endpoints (AUPC for spontaneous pain, elicited pain from von Frey hair and 40° C. probe): no significant changes
[6]; each dose level, 120 to 180 minutes after dosing on Day 14, versus placebo
  Area under the pain time curve (AUPC) for spontaneous pain, primary efficacy endpoint: no significant change
[6]; humans, at the clinical dosages
  Subject-reported relief from neuropathic pain, specifically hyperalgesia pain: subjects reported relief from neuropathic pain
[3]
  Crossing of the blood-brain barrier / access to the CNS: readily gains access to the central nervous system
[7]
  Dose linearity of mean L-4-chlorokynurenine Cmax and AUCO-∞: approximately dose linear, although not proportional
  Mean Cmax and AUCO-t of L-4-chlorokynurenine on Day 14 compared with Day 1: slightly lower on Day 14 than those on Day 1
  Mean L-4-chlorokynurenine AUCO-t: 196000 ng·h/mL
  Mean L-4-chlorokynurenine Tmax: ~2 h
  Mean t½ of L-4-chlorokynurenine: 1.64 to 1.82 h
[7]; 360 mg
  Mean L-4-chlorokynurenine AUCO-t: 64000 ng·h/mL
[8]; at doses that produce antihyperalgesic effects
  Tolerability in animal models: well tolerated
[8]; three animal models of peripheral tissue inflammation and nerve injury
  Antihyperalgesic actions in animal models: potent antihyperalgesic actions
Dopaminergic neurons
  Firing rate and burst firing activity of dopaminergic neurons: increase the firing rate and burst firing activity
[9]
  Subjects affirmatively reporting feelings of well being: 5 out of 26
